Measurements from paper PMC5218480 (PLoS ONE, 2017).

Test system: MV-4-11 cells
Assay: Gene expression microarray analysis (Affymetrix PrimeView) and GSEA
Assay type: cell-based, human
Design: RFU PODN (11730768_x_at) / Fold change /veh PODN (11730768_x_at) / RFU LINC00158 (11744669_a_at) / Fold change /veh LINC00158 (11744669_a_at) / RFU DUSP10 (11751237_a_at) / Fold change /veh DUSP10 (11751237_a_at) / RFU ID3 (11757404_x_at) / Fold change /veh ID3 (11757404_x_at) / RFU PLEKHG5 (11737974_s_at) / Fold change /veh PLEKHG5 (11737974_s_at) / RFU LRRC4B (11730491_at) / Fold change /veh LRRC4B (11730491_at) / RFU GIMAP4 (11747438_a_at) / Fold change /veh GIMAP4 (11747438_a_at) / RFU KRT8 (11758183_x_at) / Fold change /veh KRT8 (11758183_x_at) / RFU CNN1 (11734310_a_at) / Fold change /veh CNN1 (11734310_a_at) / RFU VPS37D (11726825_at) / Fold change /veh VPS37D (11726825_at) / RFU C10orf10 (11716522_x_at) / Fold change /veh C10orf10 (11716522_x_at) / RFU KIR2DL2 /// KIR2DL4 /// KIR2DL5A /// KIR2DL5B /// KIR2DS1 /// KIR2DS2 /// KIR2DS3 /// KIR2DS4 /// KIR3DL3 /// KIR3DL3 /// KIR3DS1 (11738374_at) / Fold change /veh KIR2DL2 /// KIR2DL4 /// KIR2DL5A /// KIR2DL5B /// KIR2DS1 /// KIR2DS2 /// KIR2DS3 /// KIR2DS4 /// KIR3DL3 /// KIR3DL3 /// KIR3DS1 (11738374_at) / RFU C1QL1 (11718748_at) / Fold change /veh C1QL1 (11718748_at) / RFU TMPRSS4 (11747572_a_at) / Fold change /veh TMPRSS4 (11747572_a_at) / RFU HAMP (11756126_x_at) / Fold change /veh HAMP (11756126_x_at) / RFU RNFT2 (11725882_a_at) / Fold change /veh RNFT2 (11725882_a_at) / RFU NR4A2 (11747474_a_at) / Fold change /veh NR4A2 (11747474_a_at) / RFU ABCC12 (11746883_a_at) / Fold change /veh ABCC12 (11746883_a_at) / RFU TMEM136 (11760407_x_at) / Fold change /veh TMEM136 (11760407_x_at) / RFU CLDN22 /// WWC2 (11732394_at) / Fold change /veh CLDN22 /// WWC2 (11732394_at) / RFU HLA-DPB1 (11760878_x_at) / Fold change /veh HLA-DPB1 (11760878_x_at) / RFU SPINT1 (11716480_a_at) / Fold change /veh SPINT1 (11716480_a_at) / RFU GAP43 (11754022_s_at) / Fold change /veh GAP43 (11754022_s_at) / RFU A4GNT (11735810_at) / Fold change /veh A4GNT (11735810_at) / RFU PRB3 (11715151_x_at) / Fold change /veh PRB3 (11715151_x_at) / RFU TUBB4B (11761932_at) / Fold change /veh TUBB4B (11761932_at) / RFU CAPN14 (11732068_a_at) / Fold change /veh CAPN14 (11732068_a_at) / RFU TMCC2 (11721928_a_at) / Fold change /veh TMCC2 (11721928_a_at) / RFU IRGQ (11745062_a_at) / Fold change /veh IRGQ (11745062_a_at) / RFU FAM174B (11720279_a_at) / Fold change /veh FAM174B (11720279_a_at) / RFU TMPRSS4 (11748680_a_at) / Fold change /veh TMPRSS4 (11748680_a_at) / RFU FAM212B (11763350_a_at) / Fold change /veh FAM212B (11763350_a_at) / RFU PLEKHG5 (11743358_a_at) / Fold change /veh PLEKHG5 (11743358_a_at) / RFU ZSCAN30 (11745921_a_at) / Fold change /veh ZSCAN30 (11745921_a_at) / RFU CMKLR1 (11741424_a_at) / Fold change /veh CMKLR1 (11741424_a_at) / RFU LOC101060620 /// MAPK8IP1 (11723275_at) / Fold change /veh LOC101060620 /// MAPK8IP1 (11723275_at) / RFU SPTSSB (11747773_x_at) / Fold change /veh SPTSSB (11747773_x_at) / RFU PRSS12 (11739890_at) / Fold change /veh PRSS12 (11739890_at) / RFU BIN1 (11741810_x_at) / Fold change /veh BIN1 (11741810_x_at) / RFU WNT11 (11732464_a_at) / Fold change /veh WNT11 (11732464_a_at) / RFU C10orf10 (11716521_a_at) / Fold change /veh C10orf10 (11716521_a_at) / RFU C5orf56 (11738089_at) / Fold change /veh C5orf56 (11738089_at) / RFU CYB561 (11721691_x_at) / Fold change /veh CYB561 (11721691_x_at) / RFU ANKRD19P (11752326_a_at) / Fold change /veh ANKRD19P (11752326_a_at) / RFU OR2T12 /// OR2T33 /// OR2T8 (11738714_s_at) / Fold change /veh OR2T12 /// OR2T33 /// OR2T8 (11738714_s_at) / RFU VCAN (11748164_a_at) / Fold change /veh VCAN (11748164_a_at) / RFU JSRP1 (11732532_at) / Fold change /veh JSRP1 (11732532_at) / RFU KRTAP10-11 (11738290_x_at) / Fold change /veh KRTAP10-11 (11738290_x_at) / RFU MYO3A (11730013_a_at) / Fold change /veh MYO3A (11730013_a_at) / RFU EBF3 (11725865_a_at) / Fold change /veh EBF3 (11725865_a_at) / RFU CAMK2N1 (11719241_x_at) / Fold change /veh CAMK2N1 (11719241_x_at) / RFU C5orf56 (11738088_a_at) / Fold change /veh C5orf56 (11738088_a_at) / RFU OLFML3 (11715873_a_at) / Fold change /veh OLFML3 (11715873_a_at) / RFU LOC100653217 /// NTM (11731650_a_at) / Fold change /veh LOC100653217 /// NTM (11731650_a_at) / RFU MAPK11 (11762145_a_at) / Fold change /veh MAPK11 (11762145_a_at) / RFU FIZ1 (11724087_x_at) / Fold change /veh FIZ1 (11724087_x_at) / RFU OASL (11726364_x_at) / Fold change /veh OASL (11726364_x_at) / RFU SOX15 (11748057_x_at) / Fold change /veh SOX15 (11748057_x_at) / RFU CD79A (11719716_a_at) / Fold change /veh CD79A (11719716_a_at) / RFU HIST1H1D (11736915_at) / Fold change /veh HIST1H1D (11736915_at) / RFU CASKIN2 (11723855_a_at) / Fold change /veh CASKIN2 (11723855_a_at) / RFU LOC730098 (11760151_x_at) / Fold change /veh LOC730098 (11760151_x_at) / RFU OR4N2 (11742367_at) / Fold change /veh OR4N2 (11742367_at) / RFU PRRT2 (11749266_a_at) / Fold change /veh PRRT2 (11749266_a_at) / RFU SNX32 (11753110_a_at) / Fold change /veh SNX32 (11753110_a_at) / RFU CDHR5 (11726645_a_at) / Fold change /veh CDHR5 (11726645_a_at) / RFU RCAN1 (11760418_a_at) / Fold change /veh RCAN1 (11760418_a_at) / RFU FAM167A (11723789_a_at) / Fold change /veh FAM167A (11723789_a_at) / RFU FAM26E (11764081_at) / Fold change /veh FAM26E (11764081_at) / RFU ISYNA1 (11749810_s_at) / Fold change /veh ISYNA1 (11749810_s_at) / RFU ACY1 (11761880_at) / Fold change /veh ACY1 (11761880_at) / RFU 11764098_at / Fold change /veh 11764098_at / RFU SAMD14 (11745864_x_at) / Fold change /veh SAMD14 (11745864_x_at) / RFU NPB (11741838_a_at) / Fold change /veh NPB (11741838_a_at) / RFU TMPRSS6 (11731388_a_at) / Fold change /veh TMPRSS6 (11731388_a_at) / RFU KRTAP10-2 (11738614_at) / Fold change /veh KRTAP10-2 (11738614_at) / RFU ARHGAP8 /// PRR5-ARHGAP8 (11727945_x_at) / Fold change /veh ARHGAP8 /// PRR5-ARHGAP8 (11727945_x_at) / RFU KRTAP5-7 /// NADSYN1 (11734609_at) / Fold change /veh KRTAP5-7 /// NADSYN1 (11734609_at) / RFU RASL12 (11751679_a_at) / Fold change /veh RASL12 (11751679_a_at) / RFU CDKN2B (11736163_a_at) / Fold change /veh CDKN2B (11736163_a_at) / RFU PRF1 (11729649_at) / Fold change /veh PRF1 (11729649_at) / RFU, ZNF638 /// ZNF638-IT1 / Fold change vs veh, ZNF638 /// ZNF638-IT1 / RFU, PANK3 / Fold change vs veh, PANK3 / RFU, SH3YL1 / Fold change vs veh, SH3YL1 / RFU, ZEB2 / Fold change vs veh, ZEB2 / RFU, NRIP1 / Fold change vs veh, NRIP1 / RFU, PTTG1IP / Fold change vs veh, PTTG1IP / RFU, CAPN2 / Fold change vs veh, CAPN2 / RFU, MED14 / Fold change vs veh, MED14 / RFU, SNORA58 / Fold change vs veh, SNORA58 / RFU, C1orf63 / Fold change vs veh, C1orf63 / RFU, LRRFIP1 / Fold change vs veh, LRRFIP1 / RFU, NDUFAF7 / Fold change vs veh, NDUFAF7 / RFU, SLC12A2 / Fold change vs veh, SLC12A2 / RFU, IBTK / Fold change vs veh, IBTK / RFU, ESF1 / Fold change vs veh, ESF1 / Fold change vs veh, TMEM50B / RFU, TAOK1 / Fold change vs veh, TAOK1 / RFU, ACBD3 / Fold change vs veh, ACBD3 / RFU, TMA16 / Fold change vs veh, TMA16 / RFU, RWDD3 / Fold change vs veh, RWDD3 / RFU, BCAT1 / Fold change vs veh, BCAT1 / RFU, EDEM3 / Fold change vs veh, EDEM3 / RFU, TMEM33 / Fold change vs veh, TMEM33 / RFU, WDR75 / Fold change vs veh, WDR75 / RFU, AHCTF1 / Fold change vs veh, AHCTF1 / RFU, TFRC / Fold change vs veh, TFRC / RFU, ZDHHC17 / Fold change vs veh, ZDHHC17 / RFU, NOM1 / Fold change vs veh, NOM1 / RFU, ARL8B / Fold change vs veh, ARL8B / RFU, ZBTB11 / Fold change vs veh, ZBTB11 / RFU, TAMM41 / Fold change vs veh, TAMM41 / RFU, KIAA1704 /// LOC100996395 / Fold change vs veh, KIAA1704 /// LOC100996395 / RFU, ING1 / Fold change vs veh, ING1 / RFU, TRMT61B / Fold change vs veh, TRMT61B / RFU, FUBP3 / Fold change vs veh, FUBP3 / RFU, TP53 / Fold change vs veh, TP53 / RFU, TNKS2 / Fold change vs veh, TNKS2 / RFU, ZFP14 / Fold change vs veh, ZFP14 / RFU, ACTR2 / Fold change vs veh, ACTR2 / RFU, PPP3R1 / Fold change vs veh, PPP3R1 / RFU, PIK3R1 / Fold change vs veh, PIK3R1 / RFU, HNRNPA1 / Fold change vs veh, HNRNPA1 / RFU, RNF170 / Fold change vs veh, RNF170 / RFU, ZNF28 / Fold change vs veh, ZNF28 / RFU, RNGTT / Fold change vs veh, RNGTT / RFU, OGT / Fold change vs veh, OGT / RFU, BRD1 / Fold change vs veh, BRD1 / RFU, MARS / Fold change vs veh, MARS / RFU, ZNF655 / Fold change vs veh, ZNF655 / RFU, FAHD1 / Fold change vs veh, FAHD1 / RFU, BDP1 / Fold change vs veh, BDP1 / RFU, LRRCC1 / Fold change vs veh, LRRCC1 / RFU, ARID1A / Fold change vs veh, ARID1A / RFU, ZNF146 / Fold change vs veh, ZNF146 / RFU, ZNF330 / Fold change vs veh, ZNF330 / RFU, GPN3 / Fold change vs veh, GPN3 / RFU, C9orf123 / Fold change vs veh, C9orf123 / RFU, N4BP2L2 / Fold change vs veh, N4BP2L2 / RFU, ARFIP1 / Fold change vs veh, ARFIP1 / RFU, FAM179B / Fold change vs veh, FAM179B / RFU, BCL10 / Fold change vs veh, BCL10 / RFU, UHRF1BP1L / Fold change vs veh, UHRF1BP1L / RFU, BET1 / Fold change vs veh, BET1 / RFU, CNOT2 / Fold change vs veh, CNOT2 / RFU, ZNF268 / Fold change vs veh, ZNF268 / Fold change vs veh, ZNF507 / RFU, DGCR2 / Fold change vs veh, DGCR2 / RFU, WDSUB1 / Fold change vs veh, WDSUB1 / Fold change vs veh, HSP90B1 /// MIR3652 / RFU, ADSS / Fold change vs veh, ADSS / RFU, GK / Fold change vs veh, GK / RFU, ZNF148 / Fold change vs veh, ZNF148 / RFU, TAF9 / Fold change vs veh, TAF9 / RFU, SLC1A5 / Fold change vs veh, SLC1A5 / RFU, SLMO2 / Fold change vs veh, SLMO2 / RFU, ABCC4 / Fold change vs veh, ABCC4 / RFU, LOC101060439 /// RAP1B / Fold change vs veh, LOC101060439 /// RAP1B / RFU, RFX7 / Fold change vs veh, RFX7 / RFU, GTPBP10 / Fold change vs veh, GTPBP10 / RFU, CNEP1R1 / Fold change vs veh, CNEP1R1 / RFU, BIVM-ERCC5 /// ERCC5 / Fold change vs veh, BIVM-ERCC5 /// ERCC5 / RFU, ILF3 / Fold change vs veh, ILF3 / RFU 11762660_at / Fold change /veh 11762660_at / RFU VCAN (11757783_s_at) / Fold change /veh VCAN (11757783_s_at) / RFU DDX43 (11728927_at) / Fold change /veh DDX43 (11728927_at) / RFU KRT8 (11758188_x_at) / Fold change /veh KRT8 (11758188_x_at) / RFU NKD1 (11759106_at) / Fold change /veh NKD1 (11759106_at) / RFU SRD5A1 (11742802_a_at) / Fold change /veh SRD5A1 (11742802_a_at) / RFU TPSAB1 /// TPSB2 (11721975_s_at) / Fold change /veh TPSAB1 /// TPSB2 (11721975_s_at) / RFU GSTM3 (11746129_a_at) / Fold change /veh GSTM3 (11746129_a_at) / RFU IL23R (11737362_x_at) / Fold change /veh IL23R (11737362_x_at) / RFU TMEM51 (11727254_a_at) / Fold change /veh TMEM51 (11727254_a_at) / RFU PIWIL2 (11732686_x_at) / Fold change /veh PIWIL2 (11732686_x_at) / RFU ORM1 (11744905_x_at) / Fold change /veh ORM1 (11744905_x_at) / RFU CCDC152 (11743942_at) / Fold change /veh CCDC152 (11743942_at) / RFU ECM1 (11717891_a_at) / Fold change /veh ECM1 (11717891_a_at) / RFU IL23R (11748794_a_at) / Fold change /veh IL23R (11748794_a_at) / RFU TNFAIP8L3 (11732012_x_at) / Fold change /veh TNFAIP8L3 (11732012_x_at) / RFU MBOAT4 (11741988_at) / Fold change /veh MBOAT4 (11741988_at) / RFU 11764193_at / Fold change /veh 11764193_at / RFU TMEM53 (11763286_at) / Fold change /veh TMEM53 (11763286_at) / RFU MAGEB2 (11727129_at) / Fold change /veh MAGEB2 (11727129_at) / RFU TMEM200A (11744735_a_at) / Fold change /veh TMEM200A (11744735_a_at) / RFU CCDC152 (11751479_a_at) / Fold change /veh CCDC152 (11751479_a_at) / RFU FAM211A (11726209_a_at) / Fold change /veh FAM211A (11726209_a_at) / RFU RGS16 (11746705_a_at) / Fold change /veh RGS16 (11746705_a_at) / RFU VCAN (11755009_s_at) / Fold change /veh VCAN (11755009_s_at) / RFU RHOB (11743442_s_at) / Fold change /veh RHOB (11743442_s_at) / RFU RGS16 (11720943_a_at) / Fold change /veh RGS16 (11720943_a_at) / RFU RGS16 (11720944_at) / Fold change /veh RGS16 (11720944_at) / RFU, VPS4B / Fold change vs veh, VPS4B / RFU, CREB1 / Fold change vs veh, CREB1 / RFU, DNAJC13 / Fold change vs veh, DNAJC13 / RFU, GNAQ / Fold change vs veh, GNAQ / RFU, CDK5R1 / Fold change vs veh, CDK5R1 / RFU, ZRANB3 / Fold change vs veh, ZRANB3 / RFU, CUL4A / Fold change vs veh, CUL4A / RFU, CCNY / Fold change vs veh, CCNY / RFU, UFL1 / Fold change vs veh, UFL1 / RFU, COG3 / Fold change vs veh, COG3 / RFU, DIAPH2 / Fold change vs veh, DIAPH2 / RFU, SKA2 / Fold change vs veh, SKA2 / RFU, AFF3 / Fold change vs veh, AFF3 / RFU, LMF1 / Fold change vs veh, LMF1 / RFU, IPO11 / Fold change vs veh, IPO11 / RFU, DFFB / Fold change vs veh, DFFB / RFU, FOXP1 / Fold change vs veh, FOXP1 / RFU, CARD8 / Fold change vs veh, CARD8 / RFU, STRN3 / Fold change vs veh, STRN3 / RFU, ADK / Fold change vs veh, ADK / RFU, RASSF2 / Fold change vs veh, RASSF2 / RFU, WIPF1 / Fold change vs veh, WIPF1 / RFU, LARP1B / Fold change vs veh, LARP1B / RFU, RASA1 / Fold change vs veh, RASA1 / RFU, RB1 / Fold change vs veh, RB1 / RFU, PPFIA1 / Fold change vs veh, PPFIA1 / RFU, MAT2A / Fold change vs veh, MAT2A / RFU, CCT5 / Fold change vs veh, CCT5 / RFU, WDR92 / Fold change vs veh, WDR92 / RFU, CUX1 / Fold change vs veh, CUX1 / RFU, TTC7A / Fold change vs veh, TTC7A / RFU, TMEM135 / Fold change vs veh, TMEM135 / RFU, DEPTOR / Fold change vs veh, DEPTOR / RFU, CPM / Fold change vs veh, CPM / RFU, DNAJB6 / Fold change vs veh, DNAJB6 / RFU, CACNA2D3 / Fold change vs veh, CACNA2D3 / RFU, DTX4 / Fold change vs veh, DTX4 / RFU, TFCP2 / Fold change vs veh, TFCP2 / RFU, GMCL1 /// GMCL1P1 / Fold change vs veh, GMCL1 /// GMCL1P1 / RFU, AEBP2 / Fold change vs veh, AEBP2 / RFU, SNHG1 /// SNORD22 /// SNORD25 /// SNORD26 /// SNORD27 /// SNORD28 /// SNORD29 /// SNORD31 / Fold change vs veh, SNHG1 /// SNORD22 /// SNORD25 /// SNORD26 /// SNORD27 /// SNORD28 /// SNORD29 /// SNORD31 / Fold change (Aza/veh), C12orf56 (ProbeSet 11735607_a_at) / Fold change (ACY-1035/veh), C12orf56 (ProbeSet 11735607_a_at) / Fold change (Aza/veh), FGFR1OP (ProbeSet 11751329_s_at) / Fold change (ACY-1035/veh), FGFR1OP (ProbeSet 11751329_s_at) / Fold change (Aza/veh), VPS36 (ProbeSet 11739960_a_at) / Fold change (ACY-1035/veh), VPS36 (ProbeSet 11739960_a_at) / RFU SYPL1 (11715823_x_at) / Fold change /veh SYPL1 (11715823_x_at) / RFU IGFBP7 (11715501_s_at) / Fold change /veh IGFBP7 (11715501_s_at) / RFU REEP3 (11722064_at) / Fold change /veh REEP3 (11722064_at) / RFU IGLL1 (11728026_x_at) / Fold change /veh IGLL1 (11728026_x_at): dose or concentration left out as unconfirmed
Conditions: ProbeSet 11741070_a_at; LIST B

## Nc1ncn([C@@H]2O[C@H](CO)[C@@H](O)[C@H]2O)c(=O)n1 [azacitidine]
  RFU, ZNF146: 2051.58 RFU
